# Legend:
# menopausal women [1] = experiment: Placebo-controlled study: frequency of moderate to severe hot flushes; type: in vivo, human (women); set-up: key to Frequency of Moderate to Severe Hot Flushes, Mean Change from Baseline / Frequency of Moderate to Severe Hot Flushes, Mean: number of moderate-to-severe hot flushes per day; conditions: for Frequency of Moderate to Severe Hot Flushes, Mean: Baseline, daily average
# Protocol: (§1) This study was a multi-centred, double-blind, placebo-controlled, parallel group comparison. A total of 351 subjects were enrolled at 78 sites in the United States.
# (§2) A two-week, medication free, Pre-Treatment Phase was used to determine subject vasomotor symptoms. Efficacy assessments included the number and intensity of hot flushes per day, and severity of vulvar and vaginal atrophy symptoms.
# (§3) The three treatment groups comprised the following dosages: • A 0.375 mg dose (1.25 g of gel @ 0.03%) applied to one arm and 0.9 g of placebo gel applied on the other arm once daily for 12 weeks; • A 0.27 mg dose (0.9 g of gel @ 0.03%) applied to one arm and 1.25 g of placebo gel applied on the other arm once daily for 12 weeks; and • 0.9 g of placebo gel applied to one arm and 1.25 g of placebo gel applied on the other arm once daily for 12 weeks.
# (§4) The Treatment Phase was 12 weeks. A pre-treatment period of 2 weeks was used to initially evaluate each subject's vasomotor symptoms.
# (§5) All data were analyzed using the approach of Observed Cases (OC).
# (§6) For all continuous primary and secondary efficacy parameters, descriptive statistics tables and 2-way ANCOVA with fixed factors treatment and centre, and baseline value as covariate were provided. The interaction of treatment and centre was investigated using 2-way ANCOVA with fixed factors treatment, centre, and treatment-by-centre interaction with baseline value as covariate. To control the Type-I error rate, a step-down procedure using contrasts was performed to compare each treatment group to the placebo group. First, the group with the 0.375 mg dose was compared against placebo at the α=0.05 level (2-sided). If the null hypothesis was rejected, the group with the 0.27 mg dose was compared to placebo at the α=0.05 level (2-sided). Graphs were used to characterize the dose response. If the assumptions of the model were not met, then van Elteren's test with centre as the stratification variable was used in the step-down procedure. For categorical data, Fisher's exact test was used to compare treatment groups.
# (§7) The study assessed the following variables: • Mean change in frequency of moderate to severe vasomotor symptoms from baseline to Week 4; • Mean change in frequency of moderate to severe vasomotor symptoms from baseline to Week 12; • Mean change in severity of moderate to severe vasomotor symptoms from baseline to Week 4; • Mean change in severity of moderate to severe vasomotor symptoms from baseline to Week 12; • Mean change in frequency of moderate-to-severe hot flushes at each week; • Mean change in severity of moderate-to-severe hot flushes at each week; • Mean change from baseline to Week 12 in the moderate to severe symptom of vulvar and vaginal atrophy that has been identified by the subject as being the most bothersome to her (vaginal pain, dryness, irritation/itching, bleeding, dysuria);
# The baseline value was defined as the daily average of moderate to severe hot flushes during the 2 Pre-Treatment Phase weeks. The “daily average” was calculated from “the mean across the reported days at each week or at Pre-Treatment Phase weeks. If only mild hot flushes were reported on any day, the moderate to severe hot flush value for the subject on that day was zero. If less than 10 days of data were available for the baseline period, the baseline daily average was considered missing.
# (§8) On a daily basis, the subject recorded the number of hot flushes and rated the intensity of each based on a four-point scale as follows: • 0 (none) • 1 (mild) Sensation of heat without perspiration • 2 (moderate) Sensation of heat with perspiration, but the subject was able to continue with their activity • 3 (severe) Sensation of heat with sweating, sufficiently severe to result in discontinuation of activity Assessment of Vulvar and Vaginal Atrophy Symptom Severity
# menopausal women [2] = experiment: Placebo-controlled study: severity of moderate to severe hot flushes; type: in vivo, human (women); set-up: key to Severity of Moderate to Severe Hot Flushes, Mean Change from Baseline / Severity of Moderate to Severe Hot Flushes, Mean: 0 none, 1 mild, 2 moderate, 3 severe hot flush intensity; conditions: for Severity of Moderate to Severe Hot Flushes, Mean: Baseline
# Protocol: as §1, §2, §3, §4, §5, §6, §7
# Severity of moderate to severe vasomotor symptoms was defined as (2*number of moderate hot flushes+3*number of severe hot flushes)/total number of moderate and severe hot flushes.
# As with frequency, if less than 10 days of data were available for the baseline period, the baseline severity was considered missing.
# as §8
smiles,measurement,setting,value
"C[C@]12CC[C@@H]3c4ccc(O)cc4CC[C@H]3[C@@H]1CC[C@@H]2O [estradiol, 17-beta estradiol]","Week at which statistical significance vs placebo was achieved, frequency of moderate to severe hot flushes",menopausal women [1]; 0.27 mg dose,4 Week
same,"Frequency of Moderate to Severe Hot Flushes, Mean",menopausal women [1]; 0.27 mg dose,11.73
same,"Frequency of Moderate to Severe Hot Flushes, Mean Change from Baseline","menopausal women [1]; 0.27 mg dose, Week 1",−1.05
same,"Frequency of Moderate to Severe Hot Flushes, Mean Change from Baseline","menopausal women [1]; 0.27 mg dose, Week 2",−2.97
same,"Frequency of Moderate to Severe Hot Flushes, Mean Change from Baseline","menopausal women [1]; 0.27 mg dose, Week 3",−4.08
same,"Frequency of Moderate to Severe Hot Flushes, Mean Change from Baseline","menopausal women [1]; 0.27 mg dose, Week 4",−4.63
same,"Frequency of Moderate to Severe Hot Flushes, Mean Change from Baseline","menopausal women [1]; 0.27 mg dose, Week 5",−5.20
same,"Frequency of Moderate to Severe Hot Flushes, Mean Change from Baseline","menopausal women [1]; 0.27 mg dose, Week 6",−5.62
same,"Frequency of Moderate to Severe Hot Flushes, Mean Change from Baseline","menopausal women [1]; 0.27 mg dose, Week 7",−6.02
same,"Frequency of Moderate to Severe Hot Flushes, Mean Change from Baseline","menopausal women [1]; 0.27 mg dose, Week 8",−6.02
same,"Frequency of Moderate to Severe Hot Flushes, Mean Change from Baseline","menopausal women [1]; 0.27 mg dose, Week 9",−6.24
same,"Frequency of Moderate to Severe Hot Flushes, Mean Change from Baseline","menopausal women [1]; 0.27 mg dose, Week 10",−6.29
same,"Frequency of Moderate to Severe Hot Flushes, Mean Change from Baseline","menopausal women [1]; 0.27 mg dose, Week 11",−6.29
same,"Frequency of Moderate to Severe Hot Flushes, Mean Change from Baseline","menopausal women [1]; 0.27 mg dose, Week 12",−6.19
same,"Week at which statistical significance vs placebo was achieved, frequency of moderate to severe hot flushes",menopausal women [1]; 0.375 mg dose,2 Week
same,"Frequency of Moderate to Severe Hot Flushes, Mean",menopausal women [1]; 0.375 mg dose,12.50
same,"Frequency of Moderate to Severe Hot Flushes, Mean Change from Baseline","menopausal women [1]; 0.375 mg dose, Week 1",−1.93
same,"Frequency of Moderate to Severe Hot Flushes, Mean Change from Baseline","menopausal women [1]; 0.375 mg dose, Week 2",−4.36
same,"Frequency of Moderate to Severe Hot Flushes, Mean Change from Baseline","menopausal women [1]; 0.375 mg dose, Week 3",−5.73
same,"Frequency of Moderate to Severe Hot Flushes, Mean Change from Baseline","menopausal women [1]; 0.375 mg dose, Week 4",−6.91
same,"Frequency of Moderate to Severe Hot Flushes, Mean Change from Baseline","menopausal women [1]; 0.375 mg dose, Week 5",−7.56
same,"Frequency of Moderate to Severe Hot Flushes, Mean Change from Baseline","menopausal women [1]; 0.375 mg dose, Week 6",−7.83
same,"Frequency of Moderate to Severe Hot Flushes, Mean Change from Baseline","menopausal women [1]; 0.375 mg dose, Week 7",−8.05
same,"Frequency of Moderate to Severe Hot Flushes, Mean Change from Baseline","menopausal women [1]; 0.375 mg dose, Week 8",−8.49
same,"Frequency of Moderate to Severe Hot Flushes, Mean Change from Baseline","menopausal women [1]; 0.375 mg dose, Week 9",−8.69
same,"Frequency of Moderate to Severe Hot Flushes, Mean Change from Baseline","menopausal women [1]; 0.375 mg dose, Week 10",−8.47
same,"Frequency of Moderate to Severe Hot Flushes, Mean Change from Baseline","menopausal women [1]; 0.375 mg dose, Week 11",−8.81
same,"Frequency of Moderate to Severe Hot Flushes, Mean Change from Baseline","menopausal women [1]; 0.375 mg dose, Week 12",−8.76
same,"Efficacy vs. placebo, frequency and severity of moderate to severe hot flushes","menopausal women [1]; 0.375 mg dose, Weeks 4 and 12, all 4 criteria",efficacious vs. placebo
same,"Week at which statistical significance vs placebo was achieved, severity of moderate to severe hot flushes",menopausal women [2]; 0.27 mg dose,8 Week
same,"Severity of Moderate to Severe Hot Flushes, Mean",menopausal women [2]; 0.27 mg dose,2.52
same,"Severity of Moderate to Severe Hot Flushes, Mean Change from Baseline","menopausal women [2]; 0.27 mg dose, Week 1",−0.02
same,"Severity of Moderate to Severe Hot Flushes, Mean Change from Baseline","menopausal women [2]; 0.27 mg dose, Week 2",−0.10
same,"Severity of Moderate to Severe Hot Flushes, Mean Change from Baseline","menopausal women [2]; 0.27 mg dose, Week 3",−0.21
same,"Severity of Moderate to Severe Hot Flushes, Mean Change from Baseline","menopausal women [2]; 0.27 mg dose, Week 4",−0.26
same,"Severity of Moderate to Severe Hot Flushes, Mean Change from Baseline","menopausal women [2]; 0.27 mg dose, Week 5",−0.29
same,"Severity of Moderate to Severe Hot Flushes, Mean Change from Baseline","menopausal women [2]; 0.27 mg dose, Week 6",−0.36
same,"Severity of Moderate to Severe Hot Flushes, Mean Change from Baseline","menopausal women [2]; 0.27 mg dose, Week 7",−0.40
same,"Severity of Moderate to Severe Hot Flushes, Mean Change from Baseline","menopausal women [2]; 0.27 mg dose, Week 8",−0.46
same,"Severity of Moderate to Severe Hot Flushes, Mean Change from Baseline","menopausal women [2]; 0.27 mg dose, Week 9",−0.60
same,"Severity of Moderate to Severe Hot Flushes, Mean Change from Baseline","menopausal women [2]; 0.27 mg dose, Week 10",−0.58
same,"Severity of Moderate to Severe Hot Flushes, Mean Change from Baseline","menopausal women [2]; 0.27 mg dose, Week 11",−0.66
same,"Severity of Moderate to Severe Hot Flushes, Mean Change from Baseline","menopausal women [2]; 0.27 mg dose, Week 12",−0.70
same,"Week at which statistical significance vs placebo was achieved, severity of moderate to severe hot flushes",menopausal women [2]; 0.375 mg dose,4 Week
same,"Severity of Moderate to Severe Hot Flushes, Mean",menopausal women [2]; 0.375 mg dose,2.52
same,"Severity of Moderate to Severe Hot Flushes, Mean Change from Baseline","menopausal women [2]; 0.375 mg dose, Week 1",0.00
